The target of assay [1] is T1, CathepsinG, from human neutrophils (Homo sapiens, UniProt P08311).
T1 sequence (P08311 21-244): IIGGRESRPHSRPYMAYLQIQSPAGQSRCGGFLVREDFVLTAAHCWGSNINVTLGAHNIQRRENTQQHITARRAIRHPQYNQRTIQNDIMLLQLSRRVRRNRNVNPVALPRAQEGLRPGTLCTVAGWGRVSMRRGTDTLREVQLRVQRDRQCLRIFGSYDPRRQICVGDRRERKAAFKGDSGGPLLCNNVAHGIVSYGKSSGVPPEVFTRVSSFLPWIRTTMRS
Briefly: Enzymatic assay, cathepsin G. Conditions: Cathepsin G IC50.

The target in assay [2] is T2, Elastase from human neutrophils (Homo sapiens, UniProt P08246).
T2 sequence (P08246 30-267): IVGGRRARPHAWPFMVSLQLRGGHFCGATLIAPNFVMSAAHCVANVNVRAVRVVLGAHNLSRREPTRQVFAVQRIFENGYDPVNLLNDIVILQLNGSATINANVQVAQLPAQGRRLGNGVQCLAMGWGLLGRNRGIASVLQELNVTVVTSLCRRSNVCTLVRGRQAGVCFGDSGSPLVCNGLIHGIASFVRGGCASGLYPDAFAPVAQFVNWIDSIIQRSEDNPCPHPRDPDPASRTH
Briefly: Enzymatic assay, elastase. Conditions: Elastase IC50.

Where a SMILES comes first, the peptide text is derived from it.

The values below come from patent publication US8658604B2, “Template-fixed beta-hairpin peptidomimetics with protease inhibitory activity” (Polyphor Ltd, priority 2005, dated 2014).

In general, IC50 refers to the concentration at which inhibition is half-maximal. The low end stands for greater potency in that assay, the high end for weaker potency in that assay. Regarding `CC[C@H](C)[C@@H]1NC(=O)[C@@H]2CCCN2C(=O)[C@@H]2CCCN2C(=O)[C@H](CC(=O)O)NC(=O)[C@H](CO)NC(=O)[C@H](CCCCN)NC(=O)[C@H]([C@@H](C)O)NC(=O)[C@@H]2CSSC[C@H](NC1=O)C(=O)N[C@@H](CC(N)=O)C(=O)N1CCC[C@@H]1C(=O)N1CCC[C@H]1C(=O)N[C@@H](CCc1ccccc1)C(=O)N2` [Ex. 27] (HELM PEPTIDE1{[O=C([C@H](CCc1ccccc1)N[*:1])[*:2]].C.T.K.S.D.P.P.I.C.N.[dP].P}$PEPTIDE1,PEPTIDE1,2:R3-10:R3|PEPTIDE1,PEPTIDE1,1:R1-13:R2$$$V2.0), half-maximal inhibition in assay [1] (IC50) was put at 48 nM. For the compound `CC[C@H](C)[C@@H]1NC(=O)[C@@H]2CCCN2C(=O)[C@@H]2CCCN2C(=O)[C@H](CC(=O)O)NC(=O)[C@H](CO)NC(=O)[C@H](CCCCN)NC(=O)[C@H]([C@@H](C)O)NC(=O)[C@@H]2CSSC[C@H](NC1=O)C(=O)N[C@@H](CC(=O)O)C(=O)N1CCC[C@@H]1C(=O)N1CCC[C@H]1C(=O)N[C@@H](CCc1ccccc1)C(=O)N2` [Ex. 29] (HELM PEPTIDE1{[O=C([C@H](CCc1ccccc1)N[*:1])[*:2]].C.T.K.S.D.P.P.I.C.D.[dP].P}$PEPTIDE1,PEPTIDE1,2:R3-10:R3|PEPTIDE1,PEPTIDE1,1:R1-13:R2$$$V2.0), it took 42 nM to reach half-maximal inhibition in assay [1] (IC50). Compound `C[C@@H]1NC(=O)[C@H]([C@@H](C)O)NC(=O)[C@@H]2CSSC[C@H](NC(=O)[C@H](CCC(N)=O)NC(=O)[C@@H]3CCCN3C(=O)[C@@H]3CCCN3C(=O)[C@H](CC3CCCCC3)NC(=O)[C@H](CO)NC1=O)C(=O)N[C@@H](Cc1ccc(O)cc1)C(=O)N1CCC[C@@H]1C(=O)N1CCC[C@H]1C(=O)N[C@@H](CCc1ccccc1)C(=O)N2` [Ex. 162] (HELM PEPTIDE1{[O=C([C@H](CCc1ccccc1)N[*:1])[*:2]].C.T.A.S.[Cha].P.P.Q.C.Y.[dP].P}$PEPTIDE1,PEPTIDE1,2:R3-10:R3|PEPTIDE1,PEPTIDE1,1:R1-13:R2$$$V2.0) gave an IC50 in assay [2] of 12.5 nM.

In turn, `CCCC[C@@H]1NC(=O)[C@H](CCC(N)=O)NC(=O)[C@@H](CCC(N)=O)NC(=O)[C@H](CC2CCCCC2)NC(=O)[C@@H]2CSSC[C@H](NC1=O)C(=O)N[C@@H]([C@@H](C)O)C(=O)N[C@@H](C)C(=O)N[C@@H](CO)C(=O)N[C@@H](CC1CCCCC1)C(=O)N1CCC[C@H]1C(=O)N1CCC[C@H]1C(=O)N[C@@H](CCC(N)=O)C(=O)N2` [Ex. 171] (HELM PEPTIDE1{[Nle].C.T.A.S.[Cha].P.P.Q.C.[Cha].[dQ].Q}$PEPTIDE1,PEPTIDE1,2:R3-10:R3|PEPTIDE1,PEPTIDE1,1:R1-13:R2$$$V2.0) displayed an IC50 in assay [2] of 13 nM.

Regarding `CCCC[C@@H]1NC(=O)[C@H](CCC(N)=O)NC(=O)[C@H]2CCCN2C(=O)[C@H](CCC(N)=O)NC(=O)[C@@H]2CSSC[C@H](NC1=O)C(=O)N[C@@H]([C@@H](C)O)C(=O)N[C@@H](C)C(=O)N[C@@H](CO)C(=O)N[C@@H](CC1CCCCC1)C(=O)N1CCC[C@H]1C(=O)N1CCC[C@H]1C(=O)N[C@@H](CCC(N)=O)C(=O)N2` [compound 164] (HELM PEPTIDE1{[Nle].C.T.A.S.[Cha].P.P.Q.C.Q.[dP].Q}$PEPTIDE1,PEPTIDE1,2:R3-10:R3|PEPTIDE1,PEPTIDE1,1:R1-13:R2$$$V2.0), in assay [2], the IC50 worked out at 24 nM.

As for `CCCCCCCC[C@@H]1NC(=O)[C@H](CCC(=O)O)NC(=O)[C@@H](CCCCN)NC(=O)[C@H](Cc2ccc(O)cc2)NC(=O)[C@@H]2CSSC[C@H](NC1=O)C(=O)N[C@@H]([C@@H](C)O)C(=O)N[C@@H](C)C(=O)N[C@@H](CO)C(=O)N[C@@H]([C@@H](C)CC)C(=O)N1CCC[C@H]1C(=O)N1CCC[C@H]1C(=O)N[C@@H](CCC(N)=O)C(=O)N2` [compound 165] (HELM PEPTIDE1{[CCCCCCCC[C@H](N[*:1])C(=O)[*:2]].C.T.A.S.I.P.P.Q.C.Y.[dK].E}$PEPTIDE1,PEPTIDE1,2:R3-10:R3|PEPTIDE1,PEPTIDE1,1:R1-13:R2$$$V2.0), the concentration for half-maximal inhibition (IC50) in assay [2] was 22 nM. For the compound `CCCC[C@@H]1NC(=O)[C@H](CCC(N)=O)NC(=O)[C@H]2CCCN2C(=O)[C@H](Cc2ccc(O)cc2)NC(=O)[C@@H]2CSSC[C@H](NC1=O)C(=O)N[C@@H]([C@@H](C)O)C(=O)N[C@@H](C)C(=O)N[C@@H](CO)C(=O)N[C@@H](CC1CCCCC1)C(=O)N1CCC[C@H]1C(=O)N1CCC[C@H]1C(=O)N[C@@H](CCC(N)=O)C(=O)N2` [compound 170] (HELM PEPTIDE1{[Nle].C.T.A.S.[Cha].P.P.Q.C.Y.[dP].Q}$PEPTIDE1,PEPTIDE1,2:R3-10:R3|PEPTIDE1,PEPTIDE1,1:R1-13:R2$$$V2.0), half-maximal inhibition in assay [2] (IC50) required 16 nM.

As to `CCCC[C@@H]1NC(=O)[C@H](CCC(N)=O)NC(=O)[C@H]2CCCN2C(=O)[C@H](CC2CCCCC2)NC(=O)[C@@H]2CSSC[C@H](NC1=O)C(=O)N[C@@H]([C@@H](C)O)C(=O)N[C@@H](C)C(=O)N[C@@H](CO)C(=O)N[C@@H](CC1CCCCC1)C(=O)N1CCC[C@H]1C(=O)N1CCC[C@H]1C(=O)N[C@@H](CCC(N)=O)C(=O)N2` [compound 172] (HELM PEPTIDE1{[Nle].C.T.A.S.[Cha].P.P.Q.C.[Cha].[dP].Q}$PEPTIDE1,PEPTIDE1,2:R3-10:R3|PEPTIDE1,PEPTIDE1,1:R1-13:R2$$$V2.0), half-maximal inhibition in assay [2] (IC50) was put at 13 nM.

In assay [2], `CC[C@H](C)[C@@H]1NC(=O)[C@H](CO)NC(=O)[C@H](C)NC(=O)[C@H]([C@@H](C)O)NC(=O)[C@@H]2CSSC[C@H](NC(=O)[C@H](CCC(N)=O)NC(=O)[C@@H]3CCCN3C(=O)[C@@H]3CCCN3C1=O)C(=O)N[C@@H](Cc1ccc(O)cc1)C(=O)N1CCC[C@@H]1C(=O)N[C@@H](CCC(N)=O)C(=O)N[C@@H](CCc1ccccc1)C(=O)N2` [compound 173] (HELM PEPTIDE1{[O=C([C@H](CCc1ccccc1)N[*:1])[*:2]].C.T.A.S.I.P.P.Q.C.Y.[dP].Q}$PEPTIDE1,PEPTIDE1,2:R3-10:R3|PEPTIDE1,PEPTIDE1,1:R1-13:R2$$$V2.0) had an IC50 of 12 nM. For `CCCC[C@@H]1NC(=O)[C@H](CCC(N)=O)NC(=O)[C@H]2CCCN2C(=O)[C@H](Cc2ccccc2Cl)NC(=O)[C@@H]2CSSC[C@H](NC1=O)C(=O)N[C@@H]([C@@H](C)O)C(=O)N[C@@H](C)C(=O)N[C@@H](CO)C(=O)N[C@@H](CC1CCCCC1)C(=O)N1CCC[C@H]1C(=O)N1CCC[C@H]1C(=O)N[C@@H](CCC(N)=O)C(=O)N2` [compound 175] (HELM PEPTIDE1{[Nle].C.T.A.S.[Cha].P.P.Q.C.[O=C([C@H](Cc1ccccc1Cl)N[*:1])[*:2]].[dP].Q}$PEPTIDE1,PEPTIDE1,2:R3-10:R3|PEPTIDE1,PEPTIDE1,1:R1-13:R2$$$V2.0), 12 nM corresponded to half-maximal inhibition in assay [2] (IC50). `CCCCCCCC[C@@H]1NC(=O)[C@H](CCC(N)=O)NC(=O)[C@H]2CCCN2C(=O)[C@H](CCC(N)=O)NC(=O)[C@@H]2CSSC[C@H](NC1=O)C(=O)N[C@@H]([C@@H](C)O)C(=O)N[C@@H](C)C(=O)N[C@@H](CO)C(=O)N[C@@H](CCCCCCCC)C(=O)N1CCC[C@H]1C(=O)N1CCC[C@H]1C(=O)N[C@@H](CCC(N)=O)C(=O)N2` [compound 178] (HELM PEPTIDE1{[CCCCCCCC[C@H](N[*:1])C(=O)[*:2]].C.T.A.S.[CCCCCCCC[C@H](N[*:1])C(=O)[*:2]].P.P.Q.C.Q.[dP].Q}$PEPTIDE1,PEPTIDE1,2:R3-10:R3|PEPTIDE1,PEPTIDE1,1:R1-13:R2$$$V2.0) had an IC50 in assay [2] of 6 nM.
